Test results: patent US20030133874A1, “Analytical method to evaluate animal models of neurofibrillary degeneration” (priority 2002, published 2003)

Key:
[1] = test system: tau; assay: Induction of tau hyperphosphorylation in rat hippocampal brain slices, immunoblot; format: cell-based
Procedure: Freshly prepared hippocampal brain slices from adult Long-Evans rats were incubated under oxygenation in a physiological buffer for 1 hr with increasing concentrations of okadaic acid. Slices were homogenized in an ice-cold stop buffer by brief ultrasonication, and supernatants were boiled and analyzed for heatstable tau proteins by immunoblotting with reference mAbs Tau-1, AT8, and PHF-1 (FIG. 4a), and AP422 (FIG. 4b).
Adult male Long-Evans rats were anesthesized with CO2 and decapitated. Brains were removed within 2 min and the hippocampus was dissected using a blunt spatula. Hippocampi were cut into […] slices using a Mcllwain tissue chopper and placed into ice-cold low Ca^2+ Krebs-Bicarbonate buffer (pH 7.0): 124 mM NaCl, 3.33 mM KCl, 0.01 mM Ca^2+, 1.25 mM KH2P04, 1.33 mM MgS04, 25.7 mM NaHCO3, 10 mM D-Glucose, 20 mM HEPES. 5-8 slices were placed into a tube with 5 ml of low Ca^2+ buffer and incubated for at least 30 min at 33-34° C. with water saturated oxygenation (95% O2, 5% CO2.). After 30 min the solution was replaced with a buffer containing a physiological level of Ca^2+ (1.3 mM) and incubated for an additional 30 min. […] Aliquots of heat-stable supernatants, normalized for protein content, were analyzed on 10% SDS-PAGE, followed by immunoblotting with mAbs AT8 (1:200) and AP422 (1:5,000). […]

[2] = test system: tau; assay: Tau hyperphosphorylation in vivo after intracerebral injection into nucleus basalis, immunoblot; settings: rat nucleus basalis
Procedure: a) Analysis with mAbs Tau-1 and AT8. […] Brains were surgically removed, the nucleus basalis dissected and homogenized in ice-cold stop buffer after 30 to 360 min. Heatstable supernatants were immunoblotted with Tau-1, AT8, and Tau-1 after dephosphorylation on the blot for normalization purposes.
b) Relevant areas of immunoblots developed with ECL were scanned densitometrically and AT8 signals normalized to Tau-1 signals of phosphatase-treated blots. Results represent triplicate experiments, P values were determined by ANOVA.
c) Aliquots of extracts of vehicle and okadaic acid injected nuclei basali were immunoblotted with mAb AP422.
Male or female Long-Evans rats at approximately 3 to 4 months of age were housed in pairs with food and water available ad libidum. […] The tissue was held out of the operating field with forceps and the areas of injection were marked. Openings were made through the skull using a dentists drill and a number 5 carbide bur. […]
Heat-stable supernatants of triplicate experiments were analyzed by immunoblotting with AT8 (FIG. 5a) and AP422 (FIG. 5c). AT8 signals were quantitated after normalization to Tau-1 immunoreactivity on phosphatase-treated blots as described in example 3. […]

[3] = test system: tau; assay: Tau phosphorylation in rat brain after prolonged pentobarbital anesthesia, immunoblot of heat-stable extracts; settings: rats, five hours after 65 mg/kg
Source text: The animals at 5 hrs after the first anesthesia had to be anethesized a second time, as they had regained full consciousness. […] Recovered brains were homogenized and supernatants processed for immunoblotting with AT8 and Tau-1 as before. To normalize signal intensity with phosphorylation-dependent mAbs to total amount of tau protein present in each extract (specific labelling) sister blots with a five-fold reduced load of extract protein were subjected to exhaustive dephosphorylation with calf intestinal alkaline phosphatase prior to staining with Tau-1. Blots were developed by ECL and relevant areas of the blots were scanned densitometrically. […]
A second dose of anesthetic was administered immediately prior to brain removal when excision occurred two hours or more after the first anesthesia. Cortices were processed and tau proteins analyzed by Western-blotting as in Example 2, using mAbs Tau-1 and AT8. To allow quantitative immunochemical evaluation of tau phosphorylation sister blots of all samples with a five-fold lower protein load were subjected to exhaustive dephosphorylation to provide a relative measure for total load of tau protein using Tau-1 staining. […] Signals were captured on KODAK X-OMAT scientific imaging film and quantitated by densitometric scanning and image analysis with NIH image 1.44. […]

SMILES	tau hyperphosphorylation detected with AT8 ([1]; freshly prepared rat brain slices)	AP422 reactivity of tau ([1]; rat hippocampal brain slices, increasing concentrations)	specific effect on normalized AT8 signal ([2]; 30 to 360 min after injection)	in vivo tau hyperphosphorylation detected with AP422 ([2]; individual animals)	autonomous signs after regaining consciousness [3]
C=C1[C@@H](O)[C@@H]2O[C@]3(CC[C@H](/C=C/[C@@H](C)[C@@H]4CC(C)=C[C@@]5(O[C@H](C[C@@](C)(O)C(=O)O)CC[C@H]5O)O4)O3)CC[C@H]2O[C@@H]1[C@@H](O)C[C@H](C)[C@H]1O[C@@]2(CCCCO2)CC[C@H]1C [okadaic acid]	tau hyperphosphorylation induced	induced	impossible to discern	does not always occur	–
CCCC(C)C1(CC)C(=O)NC(=O)NC1=O (centres unmarked) [pentobarbital]	–	–	–	–	no abnormal autonomous signs
